Test results as given in patent publication US10053431B2, “Tetrahydro-benzodiazepinones” (priority 2013, dated 2018).
Counter-ions that a name gives are not always drawn.

Assays:
BIR2 domain of XIAP = BIR2 domain of XIAP (Homo sapiens (Human), UniProt P98170, C202A/C213G); experiment: TR-FRET assay for BIR2 (inhibition of binding of XIAP BIR2 domain to SMAC-derived Peptide A); settings: 6x His-tagged BIR2 domain (aa 124-240 of XIAP) 10 nM, Peptide A 20 nM, TR-FRET; read-out: IC50 BIR2
BIR3 domain of XIAP = BIR3 domain of XIAP (Homo sapiens (Human), UniProt P98170); experiment: TR-FRET assay for BIR3 (inhibition of binding of XIAP BIR3 domain to SMAC-derived Peptide A); settings: 6x His-tagged BIR3 domain (aa 241-356 of XIAP) 10 nM, Peptide A 20 nM, TR-FRET
Sequence of BIR3 domain of XIAP (P98170 241-356 with tags or gaps limits assumed): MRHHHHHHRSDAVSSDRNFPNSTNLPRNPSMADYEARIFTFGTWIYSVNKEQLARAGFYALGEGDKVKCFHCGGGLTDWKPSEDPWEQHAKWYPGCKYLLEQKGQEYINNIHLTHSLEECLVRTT

Sequence of BIR2 domain of XIAP (P98170 124-240 with tags or gaps C202A/C213G limits assumed): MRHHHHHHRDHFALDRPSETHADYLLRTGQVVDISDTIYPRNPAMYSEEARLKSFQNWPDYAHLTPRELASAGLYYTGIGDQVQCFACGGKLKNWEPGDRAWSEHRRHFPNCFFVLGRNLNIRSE

Work on `CN[C@@H](C)C(=O)N[C@H]1CN(C(=O)c2ccc(C(O)C(F)(F)F)cc2)c2ccccc2N(Cc2c(OC)ccc3cc(Br)ccc23)C1=O` (mixture of isomers) [Example 32, (S)—N—{(S)-1-(6-Bromo-2-methoxy-naphthalen-1-ylmethyl)-2-oxo-5-[4-(2,2,2-trifluoro-1-hydroxy-ethyl)-benzoyl]-2,3,4,5-tetrahydro-1H-benzo[b][1,4]diazepin-3-yl}-2-methylamino-propionamide hydrochloride, mixture of diastereomers] yielded an IC50 (BIR2 domain of XIAP) of 25 nM.
For `CN[C@@H](C)C(=O)N[C@H]1CN(C(=O)c2ccccc2[C@H](C)O)c2ccccc2N(Cc2c(C)ccc3ccccc23)C1=O` (stereo in doubt) [Example 148, (2S)-N-[(3S)-1-[2-[(1S)-1-hydroxyethyl]benzoyl]-5-[(2-methylnaphthalen-1-yl)methyl]-4-oxo-2,3-dihydro-1,5-benzodiazepin-3-yl]-2-(methylamino)propanamide;(2S)-N-[(3S)-1-[2-[(1R)-1-hydroxyethyl]benzoyl]-5-[(2-methylnaphthalen-1-yl)methyl]-4-oxo-2,3-dihydro-1,5-benzodiazepin-3-yl]-2-(methylamino)propanamide], the IC50 (BIR2 domain of XIAP) was 40.1 nM and the IC50 (BIR3 domain of XIAP) was over 54800 nM.
`CN[C@@H](C)C(=O)N[C@H]1CN(C(=O)c2ccccc2[C@H](C)O)c2ccccc2N(Cc2c(C)ccc3ccccc23)C1=O` (stereo in doubt) [Example 153, (25)-N-[(3S)-1-[2-[(1S)-1-hydroxyethyl]benzoyl]-5-[(2-methylnaphthalen-l-yl)methyl]-4-oxo-2,3-dihydro-1,5-benzodiazepin-3-yl]-2-(methylamino)propanamide;(2S)-N-[(3S)-1-[2-[(1R)-1-hydroxyethyl]benzoyl]-5-[(2-methylnaphthalen-1-yl)methyl]-4-oxo-2,3-dihydro-1,5-benzodiazepin-3-yl]-2-(methylamino)propanamide] was tested, and the IC50 (BIR2 domain of XIAP) was 52.4 nM.
With `CN[C@@H](C)C(=O)N[C@H]1CN(C(=O)Cc2ccccc2)c2ccccc2N(Cc2cccc3ccccc23)C1=O` [Example 4, (S)-2-Methylamino-N—((S)-1-naphthalen-1-ylmethyl-2-oxo-5-phenylacetyl-2,3,4,5-tetrahydro-1H-benzo[b][1,4]diazepin-3-yl)-propionamide hydrochloride] the IC50 (BIR2 domain of XIAP) was 409 nM and the IC50 (BIR3 domain of XIAP) was over 54000 nM.
Work on `CN[C@@H](C)C(=O)N[C@H]1CN(CCc2ccccc2)c2ccccc2N(Cc2cccc3ccccc23)C1=O` [Example 7, (S)-2-Methylamino-N—((S)-1-naphthalen-1-ylmethyl-2-oxo-5-phenethyl-2,3,4,5-tetrahydro-1H-benzo[b][1,4]diazepin-3-yl)-propionamide trifluoroacetate] yielded an IC50 (BIR2 domain of XIAP) of 1550 nM.
`CN[C@@H](C)C(=O)N[C@H]1CN(C(=O)c2ccncc2)c2ccccc2N(Cc2c(C)ccc3ccccc23)C1=O` [Example 9, (S)-2-Methylamino-N—[(S)-1-(2-methyl-naphthalen-1-naphthalen-1 ylmethyl)-2-oxo-5-(pyridine-4-carbonyl)-2,3,4,5-tetrahydro-1H-benzo[b][1,4]diazepin-3-yl]-propionamide hydrochloride] was tested, and the IC50 (BIR2 domain of XIAP) was 520 nM and the IC50 (BIR3 domain of XIAP) was over 54800 nM.
In the case of `CN[C@@H](C)C(=O)N[C@H]1CN(C(=O)COCCOC)c2ccccc2N(Cc2c(C)ccc3ccccc23)C1=O` [Example 10, (S)—N—[(S)-5-[2-(2-methoxy-ethoxy)-acetyl]-1-(2-methyl-naphthalen-1-ylmethyl)-2-oxo-2,3,4,5-tetrahydro-1H-benzo[b][1,4]diazepin-3-yl]-2-methylamino-propionamide hydrochloride], the IC50 (BIR2 domain of XIAP) is reported as 364 nM and the IC50 (BIR3 domain of XIAP) is reported as over 54800 nM.
`CN[C@@H](C)C(=O)N[C@H]1CN(C(=O)CC(N)=O)c2ccccc2N(Cc2c(C)ccc3ccccc23)C1=O` [Example 11, (S)—N—[(S)-5-(2-Carbamoyl-acetyl)-1-(2-methyl-naphthalen-1-ylmethyl)-2-oxo-2,3,4,5-tetrahydro-1H-benzo[b][1,4]diazepin-3-yl]-2-methylamino-propionamide hydrochloride] showed an IC50 (BIR2 domain of XIAP) of 426 nM and an IC50 (BIR3 domain of XIAP) of over 54800 nM.
For `CN[C@@H](C)C(=O)N[C@H]1CN(C(=O)COCCOCCOC)c2ccccc2N(Cc2c(C)ccc3ccccc23)C1=O` [Example 13, (S)—N—[(S)-5-{2-[2-(2-Methoxy-ethoxy)-ethoxy]-acetyl}-1-(2-methyl-naphthalen-1-ylmethyl)-2-oxo-2,3,4,5-tetrahydro-1H-benzo[b][1,4]diazepin-3-yl]-2-methylamino-propionamide hydrochloride], the IC50 (BIR2 domain of XIAP) was 234 nM.
For `CN[C@@H](C)C(=O)N[C@H]1CN(C(=O)CC2CCCCC2)c2ccccc2N(Cc2c(OC)ccc3cc(Br)ccc23)C1=O` [Example 13i], the IC50 (BIR2 domain of XIAP) was 78 nM.
Work on `CN[C@@H](C)C(=O)N[C@H]1CN(C(=O)c2ccc(C(=O)C(C)(C)C)cc2)c2ccccc2N(Cc2c(OC)ccc3cc(Br)ccc23)C1=O` [Example 13j] yielded an IC50 (BIR2 domain of XIAP) of 37 nM.
For `CN[C@@H](C)C(=O)N[C@H]1CN(C(=O)c2cccc(C(C)=O)c2)c2ccccc2N(Cc2c(OC)ccc3cc(Br)ccc23)C1=O` [Example 13l], the IC50 (BIR2 domain of XIAP) was 67 nM.
In the case of `CN[C@@H](C)C(=O)N[C@H]1CN(C(=O)Cc2ccc(C(C)=O)cc2)c2ccccc2N(Cc2c(OC)ccc3cc(Br)ccc23)C1=O` [Example 13o], the IC50 (BIR2 domain of XIAP) is reported as 28 nM.
In the case of `CN[C@@H](C)C(=O)N[C@H]1CN(C(=O)CC23CC4CC(CC(C4)C2)C3)c2ccccc2N(Cc2c(OC)ccc3cc(Br)ccc23)C1=O` [Example 13q], the IC50 (BIR2 domain of XIAP) is reported as 92 nM.
Molecule `CN[C@@H](C)C(=O)N[C@H]1CN(C(=O)CCCC(C)=O)c2ccccc2N(Cc2c(OC)ccc3cc(Br)ccc23)C1=O` [Example 27, (S)—N—((S)-1-((6-bromo-2-methoxynaphthalen-1-yl)methyl)-2-oxo-5-(5-oxohexanoyl)-2,3,4,5-tetrahydro-1H-benzo[b][1,4]diazepin-3-yl)-2-(methylamino)propanamide hydrochloride] has an IC50 (BIR2 domain of XIAP) of 33 nM.
Molecule `CN[C@@H](C)C(=O)N[C@H]1CN(C(=O)c2ccc(C(=O)OC)cc2)c2ccccc2N(Cc2c(OC)ccc3cc(Br)ccc23)C1=O` [Example 28, 4-[(S)-5-(6-Bromo-2-methoxy-naphthalen-1-ylmethyl)-3-((S)-2-methylamino-propionylamino)-4-oxo-2,3,4,5-tetrahydro-benzo[b][1,4]diazepine-1-carbonyl]-benzoic acid methyl ester hydrochloride] has an IC50 (BIR2 domain of XIAP) of 39 nM.
With `CN[C@@H](C)C(=O)N[C@H]1CN(C(=O)c2ccc(C(=O)O)cc2)c2ccccc2N(Cc2c(OC)ccc3cc(Br)ccc23)C1=O` [Example 29, 4-[(S)-5-(6-Bromo-2-methoxy-naphthalen-1-ylmethyl)-3-((S)-2-methylamino-propionylamino)-4-oxo-2,3,4,5-tetrahydro-benzo[b][1,4]diazepine-1-carbonyl]-benzoic acid hydrochloride] the IC50 (BIR2 domain of XIAP) was 28 nM.
For `CN[C@@H](C)C(=O)N[C@H]1CN(C(=O)C23CC4CC(CC(C4)C2)C3)c2ccccc2N(Cc2c(OC)ccc3cc(Br)ccc23)C1=O` [Example 34, (S)—N—[(S)-5-(Adamantane-1-carbonyl)-1-(6-bromo-2-methoxy-naphthalen-1-ylmethyl)-2-oxo-2,3,4,5-tetrahydro-1H-benzo[b][1,4]diazepin-3-yl]-2-methylamino-propionamide hydrochloride], the IC50 (BIR2 domain of XIAP) was 33 nM.
Molecule `COc1ccc2cc(Br)ccc2c1CN1C(=O)[C@@H](NC(=O)[C@@H]2CCN2)CN(C(=O)c2ccc(C(C)=O)cc2)c2ccccc21` [Example 36, (S)—N—((S)-5-(4-acetylbenzoyl)-1-((6-bromo-2-methoxynaphthalen-1-yl)methyl)-2-oxo-2,3,4,5-tetrahydro-1H-benzo[b][1,4]diazepin-3-yl)azetidine-2-carboxamide hydrochloride] has an IC50 (BIR2 domain of XIAP) of 5000 nM.
For `COc1ccc2cc(Br)ccc2c1CN1C(=O)[C@@H](NC(=O)[C@H](C)N)CN(C(=O)c2ccc(C(C)=O)cc2)c2ccccc21` [Example 39, (S)—N—((S)-5-(4-acetylbenzoyl)-1-((6-bromo-2-methoxynaphthalen-1-yl)methyl)-2-oxo-2,3,4,5-tetrahydro-1H-benzo[b][1,4]diazepin-3-yl)-2-aminopropanamide hydrochloride], the IC50 (BIR2 domain of XIAP) was 19 nM.
Work on `CN[C@@H](C)C(=O)N[C@H]1CN(C(=O)CCCC(C)=O)c2ccccc2N(Cc2c(OC)ccc3cc(C(=O)OC)ccc23)C1=O` [Example 46, 6-Methoxy-5-[(S)-3 ((S)-2-methylamino-propionylamino)-2-oxo-5-(5-oxo-hexanoyl)-2,3,4,5-tetrahydro-benzo[b][1,4]diazepin-1-ylmethyl]-naphthalene-2-carboxylic acid methyl ester hydrochloride] yielded an IC50 (BIR2 domain of XIAP) of 62 nM.
For `CN[C@@H](C)C(=O)N[C@H]1CN(C(=O)CCN)c2ccccc2N(Cc2c(OC)ccc3cc(C(=O)O)ccc23)C1=O` [Example 62, 5-(((S)-5-(3-aminopropanoyl)-3-((S)-2-(methylamino)propanamido)-2-oxo-2,3,4,5-tetrahydro-1H-benzo[b][1,4]diazepin-1-yl)methyl)-6-methoxy-2-naphthoic acid hydrochloride], the IC50 (BIR2 domain of XIAP) was 17 nM.
In the case of `CN[C@H](C)C(=O)N[C@H]1CN(C(=O)c2ccc(C(C)=O)cc2)c2ccccc2N(Cc2c(C)ccc3ccccc23)C1=O` [Example 68, (R)—N—((S)-5-(4-acetylbenzoyl)-1-((2-methylnaphthalen-1-yl)methyl)-2-oxo-2,3,4,5-tetrahydro-1H-benzo[b][1,4]diazepin-3-yl)-2-(methylamino)propanamide hydrochloride], the IC50 (BIR3 domain of XIAP) is reported as over 54800 nM.
Molecule `CN[C@@H](C)C(=O)N[C@H]1CN(C(=O)CC2CCOCC2)c2ccccc2N(Cc2c(OC)ccc3c(Br)cccc23)C1=O` [Example 87, (S)—N—((S)-1-((5-bromo-2-methoxynaphthalen-1-yl)methyl)-2-oxo-5-(2-(tetrahydro-2H-pyran-4-yl)acetyl)-2,3,4,5-tetrahydro-1H-benzo[b][1,4]diazepin-3-yl)-2-(methylamino)propanamide hydrochloride] has an IC50 (BIR3 domain of XIAP) of 54400 nM.
